Patent US10253355B2, “Instrument and system for rapid microorganism identification and antimicrobial agent susceptibility testing” (Accelerate Diagnostics, Inc., priority 2015, dated 2019)
Where two headings read alike, the source gives them in different places.

Experiments:
[1] = test system: Pseudomonas aeruginosa ATCC 27853; conditions: cited from earlier work; for Organism QC Range (MIC): AST QC panel (Table 9), CLSI recommended isolate P. aeruginosa ATCC 27853; for Expected (MIC acceptance range): P. aeruginosa ATCC 27853
[2] = test system: Pseudomonas aeruginosa ATCC 27853; assay: AST QC assay on AD-1 instrument, QC isolate P. aeruginosa ATCC 27853; assay type: cell-based
Source text: (§1) The reportable range for the AST QC assay in some examples are adjusted such that the selected QC isolates have an MIC that is within the reportable range of the QC Assay. These extended ranges are only applied to QC testing and are not applied to AST assessment of patient samples. The process for assigning an MIC value to the QC organisms is the same or similar to that used for patient samples. […] This approach allows testing of, for example, CLSI recommended QC isolates without affecting the algorithms that are optimized around antimicrobial breakpoints. The algorithms used in ID QC or AST QC testing include those described above, for example, when the QC test samples are microbial isolates. For ID QC testing utilizing target microbial nucleic acids coupled to a bead, positive detection is achieved by comparing the cumulative count in the target (e.g., Green fluorescence channel) only against a threshold of objects that have brightness exceeding bead autofluorescence. Negative control detection is achieved by doing the same for eubacteria (e.g., Red fluorescence) channel only. For example, the number of bright red objects should not exceed a threshold in order to pass negative control.
(§2) The results of the identification assay drive antibiotic selection for antimicrobial susceptibility testing. The remaining samples undergo a pre-growth step to normalize growth rates during the approximately 1-hour FISH ID assay. The concentration of organisms in the purified inoculum was determined by repeating the quantitation process with a universal nucleic acid stain as previously described herein. […] Following cell immobilization, antimicrobial solutions in Mueller-Hinton agar were dispensed into the flowcells. Different antimicrobials were tested in separate flowcells, and only a single concentration of each antimicrobial was used. A growth control consisting of Mueller-Hinton agar without any antimicrobial was included for each run. A dark-field microscope and camera produced time-lapse images approximately every 10 minutes of progenitor cells growing into clones of daughter cells in each flowcell. The agar ensured daughter cells were immobilized and remained localized to each growing clone. Resistant clones grew while susceptible clones arrest or lyse over time (FIG. 90).
(§3) Custom image analysis software assigned unique spatial XY coordinates to individual progenitor cells (FIG. 91), allowing each growing clone across a series of time-lapse images to be identified. The intensity of each clone can be used as a metric of clone mass in each image. By measuring over time, this metric was used to generate growth curves for each individual clone (FIG. 92). The pattern of cell responses was used to determine the susceptibility of the overall population. Computer algorithms developed for each organism-antimicrobial combination convert microbial growth response into an MIC value using a mathematical regression model based on the response of isolates with known MICs for a single-concentration of a given antimicrobial. Once obtained, MIC values were interpreted using FDA, CLSI or EUCAST breakpoints along with expert rules to determine the categorical result (susceptible (S), intermediate (I) or resistant (R)). In addition to MICs, this technique was applied to phenotypic resistance mechanism detection.
(§4) In this example, the AST QC consumable insert consisted of 8 wells configured in a “pi” shape, as shown in the dark gray shading in FIG. 109. The AST QC panel was composed of seven CLSI recommended isolates that provide “on-scale” MIC results for all of the antimicrobial agents included in a sample blood culture test. A C. albicans isolate was used for Quality Control assessment of the […] component of the AD-1 Instrument System.
(§5) Table 9 below lists each organism and the corresponding antimicrobial agent that was tested in the AST QC assay. […]

[3] = test system: Enterococcus faecalis ATCC 29212; assay: AST QC assay on AD-1 instrument, QC isolate E. faecalis ATCC 29212; assay type: cell-based; conditions: unit assumed
Source text: as §1, §2, §3, §4, §5

[4] = test system: Enterococcus faecalis ATCC 29212; conditions: cited from earlier work; for Organism QC Range (MIC): AST QC panel (Table 9), CLSI recommended isolate E. faecalis ATCC 29212; for Expected (MIC acceptance range): E. faecalis ATCC 29212
[5] = AST only report (Table 10), in µg/mL (unit assumed)
[6] = ID and AST report (Table 11), in µg/mL (unit assumed)

Compound | Organism QC Range (MIC) ([1]; in µg/mL (unit assumed)) | Expected (MIC acceptance range) [1, 5] | Expected (MIC acceptance range) [1, 6] | Result (MIC value) ([2]; AST only report (Table 10)) | Result (MIC value) ([2]; ID and AST report (Table 11)) | Result (MIC value) ([3]; AST only report (Table 10)) | other results
NCC[C@H](O)C(=O)N[C@@H]1C[C@H](N)[C@@H](O[C@H]2O[C@H](CN)[C@@H](O)[C@H](O)[C@H]2O)[C@H](O)[C@H]1O[C@H]1O[C@H](CO)[C@@H](O)[C@H](N)[C@H]1O [Amikacin] | 1-4 | 1-4 | 1-4 | 2 µg/mL | 2 µg/mL | – | –
CC1(C)S[C@@H]2[C@H](NC(=O)[C@H](N)c3ccccc3)C(=O)N2[C@H]1C(=O)O [Ampicillin] | – | – | – | – | – | 1 µg/mL | Organism QC Range (MIC) ([4]; in µg/mL (unit assumed)): 0.5-2; Expected (MIC acceptance range) ([4]; AST only report (Table 10)): 0.5-2^
C[C@H]1[C@H](NC(=O)/C(=N\OC(C)(C)C(=O)O)c2csc(N)n2)C(=O)N1S(=O)(=O)O [Aztreonam] | 2-8 | 2-8 | 2-8 | 4 µg/mL | 4 µg/mL | – | –
CO/N=C(\C(=O)N[C@@H]1C(=O)N2C(C(=O)[O-])=C(C[N+]3(C)CCCC3)CS[C@H]12)c1csc(N)n1 [Cefepime] | 0.5-4 | – | – | 2 µg/mL | 2 µg/mL | – | Expected (MIC acceptance range) ([1]; AST only report (Table 10)): 0.5-4^; Expected (MIC acceptance range) ([1]; ID and AST report (Table 11)): 0.5-4^
CCO/N=C(\C(=O)N[C@@H]1C(=O)N2C(C(=O)[O-])=C(Sc3nc(-c4cc[n+](C)cc4)cs3)CS[C@H]12)c1nsc(N)n1 [Ceftaroline] | – | – | – | – | – | 1 µg/mL | Result (MIC value) ([3]; ID and AST report (Table 11)): 1 µg/mL
O=C(O)c1cn(C2CC2)c2cc(N3CCNCC3)c(F)cc2c1=O [Ciprofloxacin] | – | 0.25-1 | 0.25-1 | 0.5 µg/mL | 0.5 µg/mL | – | –
CCCCCCCCCC(=O)N[C@@H](Cc1c[nH]c2ccccc12)C(=O)N[C@H](CC(N)=O)C(=O)N[C@@H](CC(=O)O)C(=O)N[C@@H]1C(=O)NCC(=O)N[C@@H](CCCN)C(=O)N[C@@H](CC(=O)O)C(=O)N[C@H](C)C(=O)N[C@@H](CC(=O)O)C(=O)NCC(=O)N[C@H](CO)C(=O)N[C@@H]([C@H](C)CC(=O)O)C(=O)N[C@@H](CC(=O)c2ccccc2N)C(=O)O[C@@H]1C [Daptomycin] | – | – | – | – | – | 2 µg/mL | Result (MIC value) ([3]; ID and AST report (Table 11)): 2 µg/mL; Organism QC Range (MIC) ([4]; in µg/mL (unit assumed)): 1-4; Expected (MIC acceptance range) [4, 5]: 1-4; Expected (MIC acceptance range) [4, 6]: 1-4
C[C@H]1c2cccc(O)c2C(=O)C2=C(O)[C@]3(O)C(=O)C(C(N)=O)=C(O)[C@@H](N(C)C)[C@@H]3[C@@H](O)[C@@H]21 [Doxycycline] | – | – | – | – | – | 4 µg/mL | Result (MIC value) ([3]; ID and AST report (Table 11)): 4 µg/mL
C[C@@H](O)[C@H]1C(=O)N2C(C(=O)O)=C(S[C@@H]3CN[C@H](C(=O)Nc4cccc(C(=O)O)c4)C3)[C@H](C)[C@H]12 [Ertapenem] | 2-8 | 2-8 | 2-8 | 4 µg/mL | 4 µg/mL | – | –
C[C@@H](O)[C@H]1C(=O)N2C(C(=O)O)=C(S[C@@H]3CN[C@H](C(=O)N(C)C)C3)[C@H](C)[C@H]12 [Meropenem] | 0.25-1 | 0.25-1 | 0.25-1 | 0.5 µg/mL | 0.5 µg/mL | – | –
NC[C@H]1O[C@H](O[C@H]2[C@H](O)[C@@H](O[C@H]3O[C@H](CO)[C@@H](O)[C@H](N)[C@H]3O)[C@H](N)C[C@@H]2N)[C@H](N)C[C@@H]1O [Tobramycin] | 0.25-1 | 0.25-1 | 0.25-1 | 0.5 µg/mL | 0.5 µg/mL | – | –
Colistin | 0.5-4 | – | – | 2 µg/mL | 2 µg/mL | – | Expected (MIC acceptance range) ([1]; AST only report (Table 10)): 0.5-4^; Expected (MIC acceptance range) ([1]; ID and AST report (Table 11)): 0.5-4^
Gentamicin | 0.5-2 | – | – | 1 µg/mL | 1 µg/mL | – | Expected (MIC acceptance range) ([1]; AST only report (Table 10)): 0.5-2^; Expected (MIC acceptance range) ([1]; ID and AST report (Table 11)): 0.5-2^
